Laboratory results reported in ChEMBL document CHEMBL1201862, “PubChem BioAssay data set” (2004).
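48-hour exposure; five concentrations; linearly interpolated endpoints. GI50: concentration for 50% inhibition of growth.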 Activity calls are given as the source filed them. No stated cut-off is given here; in the data, active = GI50 up to about 1.1 µM and inactive = higher.

Key:
Assay in all cases: DTP human tumour cell line panel, 48 h
SK-MEL-28 = system: SK-MEL-28
EKVX = system: EKVX
PC-3 = system: PC-3
UACC-257 = system: UACC-257
SK-OV-3 = system: SK-OV-3
SNB-75 = system: SNB-75
SF-268 = system: SF-268
DU-145 = system: DU-145
UACC-62 = system: UACC-62
HCT-15 = system: HCT-15
HCC 2998 = system: HCC 2998
TK-10 = system: TK-10
K562 = system: K562
SK-MEL-5 = system: SK-MEL-5
HT-29 = system: HT-29
SF-295 = system: SF-295
CAKI-1 = system: CAKI-1
SN12C = system: SN12C
Malme-3M = system: Malme-3M
MOLT-4 = system: MOLT-4
SW-620 = system: SW-620
NCI-H23 = system: NCI-H23
T47D = system: T47D
786-0 = system: 786-0
M14 = system: M14
LOX IMVI = system: LOX IMVI
CCRF-CEM = system: CCRF-CEM
MDA-N = system: MDA-N
IGROV-1 = system: IGROV-1
SR = system: SR
KM12 = system: KM12
RXF 393 = system: RXF 393
RPMI-8226 = system: RPMI-8226
MDA-MB-231 = system: MDA-MB-231
HL-60 = system: HL-60
A549 = system: A549
MCF7 = system: MCF7
OVCAR-8 = system: OVCAR-8
HOP-62 = system: HOP-62
COLO 205 = system: COLO 205
HOP-92 = system: HOP-92
OVCAR-4 = system: OVCAR-4
MDA-MB-435 = system: MDA-MB-435

CSc1nc(C)c(CCOC(C)=O)c(N=P(c2ccccc2)(c2ccccc2)c2ccccc2)n1
GI50 (SK-MEL-28): > 10 µM (inactive)
GI50 (EKVX): > 10 µM (inactive)
GI50 (PC-3): 2.53 µM (inactive)
GI50 (UACC-257): 6.18 µM (inactive)
GI50 (SK-OV-3): > 10 µM (inactive)
GI50 (SNB-75): 4.28 µM (inactive)
GI50 (SF-268): 4.12 µM (inactive)
GI50 (DU-145): > 10 µM (inactive)
GI50 (UACC-62): 5.75 µM (inactive)
GI50 (HCT-15): 4.89 µM
GI50 (HCC 2998): > 10 µM (inactive)
GI50 (TK-10): > 10 µM (inactive)
GI50 (K562): 3.42 µM (inactive)
GI50 (SK-MEL-5): 6.81 µM (inactive)
GI50 (HT-29): 4.07 µM (inactive)
GI50 (SF-295): > 10 µM (inactive)
GI50 (CAKI-1): 8.26 µM (inactive)
GI50 (SN12C): 6.78 µM (inactive)
GI50 (Malme-3M): > 10 µM (inactive)
GI50 (MOLT-4): 2.11 µM (inactive)
GI50 (SW-620): 4.97 µM (inactive)
GI50 (NCI-H23): 3.77 µM (inactive)
GI50 (T47D): 4.24 µM (inactive)
GI50 (786-0): > 10 µM (inactive)
GI50 (M14): 5.61 µM (inactive)
GI50 (LOX IMVI): 1.33 µM (inactive)
GI50 (CCRF-CEM): 3.89 µM (inactive)
GI50 (MDA-N): 4.05 µM (inactive)
GI50 (IGROV-1): > 10 µM (inactive)
GI50 (SR): 2.54 µM (inactive)
GI50 (KM12): 3.72 µM (inactive)
GI50 (RXF 393): 2.89 µM (inactive)
GI50 (RPMI-8226): 3.14 µM (inactive)
GI50 (MDA-MB-231): 6.56 µM (inactive)
GI50 (HL-60): 2.82 µM (inactive)
GI50 (A549): 5.12 µM (inactive)
GI50 (MCF7): 3.49 µM (inactive)
GI50 (OVCAR-8): 4.88 µM (inactive)
GI50 (HOP-62): 7.94 µM (inactive)

N#Cc1ccc(/N=C(/NCC(=O)O)Nc2ccc3ccccc3c2)cc1
GI50 (SK-MEL-28): > 10 µM (inactive)
GI50 (EKVX): > 10 µM (inactive)
GI50 (PC-3): > 10 µM (inactive)
GI50 (UACC-257): > 10 µM (inactive)
GI50 (SK-OV-3): > 10 µM (inactive)
GI50 (SNB-75): > 10 µM (inactive)
GI50 (SF-268): > 10 µM (inactive)
GI50 (DU-145): > 10 µM (inactive)
GI50 (UACC-62): > 10 µM (inactive)
GI50 (HCT-15): > 10 µM
GI50 (HCC 2998): > 10 µM (inactive)
GI50 (TK-10): > 10 µM (inactive)
GI50 (K562): > 10 µM (inactive)
GI50 (SK-MEL-5): > 10 µM (inactive)
GI50 (HT-29): > 10 µM (inactive)
GI50 (SF-295): > 10 µM (inactive)
GI50 (CAKI-1): > 10 µM (inactive)
GI50 (SN12C): > 10 µM (inactive)
GI50 (Malme-3M): > 10 µM (inactive)
GI50 (MOLT-4): > 10 µM (inactive)
GI50 (SW-620): > 10 µM (inactive)
GI50 (NCI-H23): > 10 µM (inactive)
GI50 (T47D): > 10 µM (inactive)
GI50 (786-0): > 10 µM (inactive)
GI50 (M14): > 10 µM (inactive)
GI50 (CCRF-CEM): > 10 µM (inactive)
GI50 (COLO 205): > 10 µM (inactive)
GI50 (MDA-N): > 10 µM (inactive)
GI50 (IGROV-1): > 10 µM (inactive)
GI50 (SR): > 10 µM (inactive)
GI50 (KM12): > 10 µM (inactive)
GI50 (RXF 393): > 10 µM (inactive)
GI50 (RPMI-8226): > 10 µM (inactive)
GI50 (MDA-MB-231): > 10 µM (inactive)
GI50 (HL-60): > 10 µM (inactive)
GI50 (A549): > 10 µM (inactive)
GI50 (MCF7): > 10 µM (inactive)
GI50 (OVCAR-8): > 10 µM (inactive)
GI50 (HOP-62): > 10 µM (inactive)

O=C(Nc1ccccc1)C(=O)C(C(=O)c1ccccc1)C(c1ccccc1)c1ccccc1 (stereo not given)
GI50 (SK-MEL-28): > 10 µM (inactive)
GI50 (EKVX): > 10 µM (inactive)
GI50 (PC-3): > 10 µM (inactive)
GI50 (UACC-257): > 10 µM (inactive)
GI50 (SK-OV-3): > 10 µM (inactive)
GI50 (SNB-75): > 10 µM (inactive)
GI50 (SF-268): > 10 µM (inactive)
GI50 (HOP-92): > 10 µM (inactive)
GI50 (DU-145): > 10 µM (inactive)
GI50 (UACC-62): > 10 µM (inactive)
GI50 (HCT-15): > 10 µM
GI50 (HCC 2998): > 10 µM (inactive)
GI50 (TK-10): > 10 µM (inactive)
GI50 (K562): > 10 µM (inactive)
GI50 (SK-MEL-5): > 10 µM (inactive)
GI50 (HT-29): > 10 µM (inactive)
GI50 (SF-295): > 10 µM (inactive)
GI50 (CAKI-1): > 10 µM (inactive)
GI50 (SN12C): > 10 µM (inactive)
GI50 (Malme-3M): > 10 µM (inactive)
GI50 (MOLT-4): > 10 µM (inactive)
GI50 (SW-620): > 10 µM (inactive)
GI50 (NCI-H23): > 10 µM (inactive)
GI50 (T47D): > 10 µM (inactive)
GI50 (786-0): > 10 µM (inactive)
GI50 (M14): > 10 µM (inactive)
GI50 (LOX IMVI): > 10 µM (inactive)
GI50 (CCRF-CEM): > 10 µM (inactive)
GI50 (COLO 205): > 10 µM (inactive)
GI50 (MDA-N): > 10 µM (inactive)
GI50 (IGROV-1): > 10 µM (inactive)
GI50 (SR): > 10 µM (inactive)
GI50 (RXF 393): > 10 µM (inactive)
GI50 (RPMI-8226): > 10 µM (inactive)
GI50 (MDA-MB-231): > 10 µM (inactive)
GI50 (HL-60): > 10 µM (inactive)
GI50 (OVCAR-4): > 10 µM (inactive)
GI50 (A549): > 10 µM (inactive)
GI50 (MCF7): > 10 µM (inactive)
GI50 (OVCAR-8): > 10 µM (inactive)
GI50 (HOP-62): > 10 µM (inactive)
GI50 (MDA-MB-435): > 10 µM (inactive)
